Measured values from patent US20260274922A1, “SYNTHETIC ESTROGEN RECEPTOR (ER)-DERIVED PEPTIDE” (THE TEXAS A&M UNIVERSITY SYSTEM, priority 2023, published 2026).
Where no end group is shown, it is not given here. The star is where a group is joined. FITC = O=C1OC2(c3ccc(O)cc3Oc3cc(O)ccc32)c2ccc(NC(=S)*)cc21

How the values were obtained:
[1] = system: db/db mice; type: in vivo, mouse
Description: (§1) Obese mouse models and AF1 peptide treatment. For the high-fat diet (HFD)-induced obese mouse model, the 6-8-week-old male mice were fed with HFD (HFD; 60% kcal from fat, D12492; Research diet, New Brunswick, NJ) for 11 weeks. Then mice received 5 mg/kg body weight control or AF1 peptide through retro orbital injection (twice per week; 5 weeks). For genetic obesity mouse model, the 8-week-old db/db mice were administered with 5 mg/kg body weight control or AF1 peptide through retro orbital injection (twice per week; 5 weeks). Glucose tolerance and insulin tolerance tests were performed in the fourth and fifth week after treatment, respectively. Body composition was measured using EchoMRI™ one day before sacrificing the mice.
(§2) Glucose and insulin tolerance tests. For glucose tolerance tests, mice were fasted for 16 h and intraperitoneally (i.p.) injected with dextrose (1 g/kg body weight for mice fed with regular diet; 0.5 g/kg body weight for db/db mice or mice fed with HFD). For insulin tolerance tests, mice were fasted for 6 h and i.p. injected with insulin solution (1 U/kg body weight for male mice; 0.75 U/kg body weight for female mice). Blood glucose levels were measured using glucometer at indicated time points.
(§3) Hematoxylin and eosin staining and Oil Red O staining. Livers were embedded into paraffin after being fixed by PFA, and then cut into 5 μm sections. After deparaffinization and hydration, liver sections were stained with hematoxylin for 5 min. After differentiation by 1% acid alcohol, liver sections were stained with 1% eosin for 3 min. Finally, liver sections were dehydrated and mounted with mounting media. For Oil Red O staining, liver frozen sections were prepared and fixed in 10% neutral buffered formalin for 10 min after air dry for 1 h. Liver sections were stained in Oil Red O working solution for 15 min after a quick dip in 60% isopropanol. Liver sections were then stained with hematoxylin for 3 min and covered with aqueous mounting gel. Liver sections were observed using slide scanner (Leica).
(§4) Co-immunoprecipitation and Western blotting analysis. […] Protein bands were detected using a ChemiDoc image system.
(§5) Serum lipid profile analysis. Serum triglyceride, AST, ALT, cholesterol, LDL, HDL, NEFA, and ALP were measured using DxC 700 AU Chemistry Analyzer (Beckman Coulter).
Serum insulin and liver triglyceride analysis. Serum insulin and triglyceride levels were measured by using mouse insulin ELISA kit (Mercodia) and triglyceride assay kit (Abcam), respectively. […]

[2] = system: diet-induced obesity (DIO) mice; type: in vivo, mouse
Description: as §1, §2
RNA extraction and quantitative real-time PCR. Total RNA was extracted from livers or primary hepatocytes using TRIzol (Invitrogen, Thermo Fisher Scientific), purified with chloroform, 80% ethanol, isopropanol, and RNA column, eluted with RNase free water, and reverse transcribed into cDNA using iScript Reverse Transcription Supermix (Bio-Rad, Hercules, CA). Quantitative real-time PCR (qPCR) was conducted using SsoAdvanced Universal SYBR Green Supermix (Bio-Rad, Hercules, CA) on CFX384 real-time PCR detection system (Bio-Rad, Hercules, CA). Q-PCR started with 95° C. incubation for 3 min, followed by 39 cycles of 95° C. for 5 s and 60° C. for 30 s. The threshold cycle (CT) values were obtained and used to calculate the relative transcriptional level of target genes by 2^−ΔΔCT method with Cyclophilin (Cyp) as an internal control. […].
as §3, §4, §5
Serum insulin and liver triglyceride analysis. Serum insulin and triglyceride levels were measured by using mouse insulin ELISA kit (Mercodia) and triglyceride assay kit (Abcam), respectively.

[3] = db/db mice, 5 mg/kg twice per week, 5 weeks
[4] = db/db mice, 5 mg/kg twice per week, 5 weeks, vs CNTR
[5] = DIO mice, 5 mg/kg twice per week, 5 weeks
[6] = DIO mice, 5 mg/kg twice per week, 5 weeks, vs CNTR

YGRKKRRQRRRTKASGMALLHEPLNRPQLKIPLERDSSKPAVYNY ({FITC}-YGRKKRRQRRRTKASGMALLHEPLNRPQLKIPLERDSSKPAVYNY) [AF1 peptide]
liver triglycerides ([1]; db/db mice): decreasing trend | serum HDL ([1]; db/db mice): significantly reduced | serum LDL ([1]; db/db mice): significantly reduced | serum NEFA ([1]; db/db mice): significantly reduced | serum cholesterol ([1]; db/db mice): significantly reduced | serum insulin ([1]; db/db mice): limited effect | serum triglycerides ([1]; db/db mice): decreasing trend | overnight fasting blood glucose [1, 3]: 103.8 ± 3.6 mg/dL | random feeding blood glucose [1, 3]: 360.7 ± 25.1 mg/dL | decrease in overnight fasting blood glucose [1, 4]: 35% | reduction in random feeding blood glucose [1, 4]: 22% | liver steatosis (steatosis structure and liver fat amount) ([1]; db/db mice, H&E and Oil Red O staining): significantly decreased | blood glucose upon glucose or insulin challenge ([1]; db/db mice, glucose and insulin tolerance tests): significantly decreased | decrease in pIRS1-S302 ([1]; db/db mice, liver): 61% | increase in IRS1 ([1]; db/db mice, liver): 114% | increase in pAKT-S473 ([1]; db/db mice, liver): 98% | increase in pAKT-T308 ([1]; db/db mice, liver): 101% | pAKT-S473 and pAKT-T308 ([1]; db/db mice, skeletal muscle and epididymal fat tissues): significantly increased | serum ALP ([1]; mouse, in vivo): limited effect | serum ALT ([1]; mouse, in vivo): limited effect | serum AST ([1]; mouse, in vivo): significantly reduced | decrease in serum NEFA ([2]; DIO mice): 21% | decrease in serum cholesterol ([2]; DIO mice): 8% | decrease in serum triglyceride ([2]; DIO mice): 21% | glucose tolerance ([2]; DIO mice): significantly improved | insulin sensitivity ([2]; DIO mice): significantly improved | serum HDL ([2]; DIO mice): decreases | serum LDL ([2]; DIO mice): decreases | serum insulin ([2]; DIO mice): not changed | overnight fasting blood glucose [2, 5]: 85.4 ± 0.2 mg/dL | random feeding blood glucose [2, 5]: 154.2 ± 4.7 mg/dL | decrease in overnight fasting blood glucose [2, 6]: 20% | decrease in random feeding blood glucose [2, 6]: 12% | liver fat accumulation ([2]; DIO mice, H&E staining): ameliorated | decrease in pIRS1-302 ([2]; DIO mice, liver): 32% | increase in IRS1 ([2]; DIO mice, liver): 49% | increase in pAKT-308 ([2]; DIO mice, liver): 51% | increase in pAKT-S473 ([2]; DIO mice, liver): 100% | mRNA expression of FAO gene (Hadha) ([2]; DIO mice, liver, q-PCR): increased | mRNA expression of gluconeogenic gene (Pck1) ([2]; DIO mice, liver, q-PCR): significantly decreased | mRNA expression of inflammatory cytokine (Il6) ([2]; DIO mice, liver, q-PCR): significantly decreased | mRNA expression of lipogenic gene (Fasn) ([2]; DIO mice, liver, q-PCR): significantly decreased | serum ALP ([2]; mouse, in vivo): not changed | serum ALT ([2]; mouse, in vivo): not changed | serum AST ([2]; mouse, in vivo): not changed
